# According to PubChem BioAssay AID2060884 (Molecular Pharmacology Branch, DTP, NCI, 2025):
# Where “and” joins values, the source holds several entries; their conditions need not be identical. Equal entries are not always repeated.
# Tested on: NCI-H929 complex spheroids, viability % test/control
# Assay: Anticancer human tumor NCI-H929 cell line growth inhibition [RAS];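 further: compound exposure lasted seven days before viability was read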;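 on viability, T/C: 100% = DMSO vehicle control viability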
# Settings: for viability, T/C: stronger effect = lower value
# How it was run: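 Agents were tested in combination matrices in half-log decrements from a top concentration at or near clinical Cmax (10 microM if undetermined). Targets were multi-cell spheroids of tumour lines plus HUVEC and MSC stromal cells.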
# [1] = curve of first compound, second compound 0.000949 µM
# [2] = curve of first compound, second compound 0.003 µM
# [3] = curve of first compound, second compound 0.00949 µM
# [4] = curve of first compound, second compound 0.03 µM
# [5] = curve of first compound, second compound 0.0949 µM
# [6] = curve of first compound, second compound 0.3 µM
# [7] = second compound 0.000949 µM, first compound 0.0316 µM
# [8] = second compound 0.000949 µM, first compound 0.1 µM
# [9] = second compound 0.000949 µM, first compound 0.316 µM
# [10] = second compound 0.000949 µM, first compound 1 µM
# [11] = second compound 0.003 µM, first compound 0.0316 µM
# [12] = second compound 0.003 µM, first compound 0.1 µM
# [13] = second compound 0.003 µM, first compound 0.316 µM
# [14] = second compound 0.003 µM, first compound 1 µM
# [15] = second compound 0.00949 µM, first compound 0.0316 µM
# [16] = second compound 0.00949 µM, first compound 0.1 µM
# [17] = second compound 0.00949 µM, first compound 0.316 µM
# [18] = second compound 0.00949 µM, first compound 1 µM
# [19] = second compound 0.03 µM, first compound 0.0316 µM
# [20] = second compound 0.03 µM, first compound 0.1 µM
# [21] = second compound 0.03 µM, first compound 0.316 µM
# [22] = second compound 0.03 µM, first compound 1 µM
# [23] = second compound 0.0949 µM, first compound 0.0316 µM
# [24] = second compound 0.0949 µM, first compound 0.1 µM
# [25] = second compound 0.0949 µM, first compound 0.316 µM
# [26] = second compound 0.0949 µM, first compound 1 µM
# [27] = second compound 0.3 µM, first compound 0.0316 µM
# [28] = second compound 0.3 µM, first compound 0.1 µM
# [29] = second compound 0.3 µM, first compound 0.316 µM
# [30] = second compound 0.3 µM, first compound 1 µM
structure (smiles),measurement,setting,value
C[C@@H](NC(=O)c1ncnc(N)c1Cl)c1ncc(C(=O)Nc2cc(C(F)(F)F)c(Cl)cn2)s1 + CCn1c(-c2cccnc2C(C)OC)c2c3cc(ccc31)N1CCOC(CC(NC(=O)C(C(C)C)N(C)C(=O)C3(F)CCN(C(=O)C#CC(C)(C)N(C)C)CC3)C(=O)N3CCCC(N3)C(=O)OCC(C)(C)C2)C1,IC50,[1],> 10 µM
same,IC50,[2],> 10 µM
same,IC50,[3],> 10 µM
same,IC50,[4],> 10 µM
same,IC50,[5],> 10 µM
same,IC50,[6],> 10 µM
same,"viability, T/C",[7],109%
same,"viability, T/C",[8],101%
same,"viability, T/C",[9],105%
same,"viability, T/C",[10],94.4%
same,"viability, T/C","second compound 0.000949 µM, first compound 3.16 µM",98.9%
same,"viability, T/C","second compound 0.000949 µM, first compound 10 µM",103%
same,"viability, T/C",[11],103%
same,"viability, T/C",[12],107%
same,"viability, T/C",[13],99.3%
same,"viability, T/C",[14],93.1%
same,"viability, T/C","second compound 0.003 µM, first compound 3.16 µM",100%
same,"viability, T/C","second compound 0.003 µM, first compound 10 µM",104%
same,"viability, T/C",[15],99.7%
same,"viability, T/C",[16],102%
same,"viability, T/C",[17],102%
same,"viability, T/C",[18],92.3%
same,"viability, T/C","second compound 0.00949 µM, first compound 3.16 µM",102%
same,"viability, T/C","second compound 0.00949 µM, first compound 10 µM",104%
same,"viability, T/C",[19],98.8%
same,"viability, T/C",[20],105%
same,"viability, T/C",[21],99.1%
same,"viability, T/C",[22],92.6%
same,"viability, T/C","second compound 0.03 µM, first compound 3.16 µM",101%
same,"viability, T/C","second compound 0.03 µM, first compound 10 µM",104%
same,"viability, T/C",[23],104%
same,"viability, T/C",[24],101%
same,"viability, T/C",[25],94.8%
same,"viability, T/C",[26],92.3%
same,"viability, T/C","second compound 0.0949 µM, first compound 3.16 µM",96.2%
same,"viability, T/C","second compound 0.0949 µM, first compound 10 µM",105%
same,"viability, T/C",[27],106%
same,"viability, T/C",[28],105%
same,"viability, T/C",[29],102%
same,"viability, T/C",[30],87.4%
same,"viability, T/C","second compound 0.3 µM, first compound 3.16 µM",92.5%
same,"viability, T/C","second compound 0.3 µM, first compound 10 µM",107%
CCN1CCN(Cc2ccc(Nc3ncc(F)c(-c4cc(F)c5nc(C)n(C(C)C)c5c4)n3)nc2)CC1 + CCn1c(-c2cc(N3CCN(C)CC3)cnc2C(C)OC)c2c3cc(ccc31)-c1csc(n1)CC(NC(=O)C1CC1C)C(=O)N1CCCC(N1)C(=O)OCC(C)(C)C2,IC50,[1],0.789 µM
same,IC50,[2],0.725 µM
same,IC50,[3],0.642 µM
same,IC50,[4],0.134 µM
same,IC50,[5],< 0.00316 µM
same,IC50,[6],< 0.00316 µM
same,"viability, T/C","second compound 0.000949 µM, first compound 0.00316 µM",104%
same,"viability, T/C","second compound 0.000949 µM, first compound 0.01 µM",98.4%
same,"viability, T/C",[7],110%
same,"viability, T/C",[8],107%
same,"viability, T/C",[9],114%
same,"viability, T/C",[10],35.1%
same,"viability, T/C","second compound 0.003 µM, first compound 0.00316 µM",98.3%
same,"viability, T/C","second compound 0.003 µM, first compound 0.01 µM",105%
same,"viability, T/C",[11],108%
same,"viability, T/C",[12],113%
same,"viability, T/C",[13],114%
same,"viability, T/C",[14],27.8%
same,"viability, T/C","second compound 0.00949 µM, first compound 0.00316 µM",109%
same,"viability, T/C","second compound 0.00949 µM, first compound 0.01 µM",116%
same,"viability, T/C",[15],120%
same,"viability, T/C",[16],125%
same,"viability, T/C",[17],122%
same,"viability, T/C",[18],7.19%
same,"viability, T/C","second compound 0.03 µM, first compound 0.00316 µM",81.7%
same,"viability, T/C","second compound 0.03 µM, first compound 0.01 µM",80.5%
same,"viability, T/C",[19],76.6%
same,"viability, T/C",[20],55.4%
same,"viability, T/C",[21],29.2%
same,"viability, T/C",[22],1.2%
same,"viability, T/C","second compound 0.0949 µM, first compound 0.00316 µM",9.23%
same,"viability, T/C","second compound 0.0949 µM, first compound 0.01 µM",8.26%
same,"viability, T/C",[23],6.56%
same,"viability, T/C",[24],4.66%
same,"viability, T/C",[25],2.4%
same,"viability, T/C",[26],0.89%
same,"viability, T/C","second compound 0.3 µM, first compound 0.00316 µM",4.35%
same,"viability, T/C","second compound 0.3 µM, first compound 0.01 µM",4.24%
same,"viability, T/C",[27],2.73%
same,"viability, T/C",[28],2.03%
same,"viability, T/C",[29],1.42%
same,"viability, T/C",[30],0.89%
Cc1nc(N2CCC3(CC2)COC(C)C3N)c(CO)nc1Sc1ccnc(N)c1Cl (configuration not stated) + C#Cc1c(F)ccc2cc(O)cc(-c3ncc4c(N5CC6CCC(C5)N6)nc(OCC56CCCN5CC(F)C6)nc4c3F)c12,IC50,"curve of first compound, second compound 0.0316 µM",> 10 µM
same,IC50,"curve of first compound, second compound 0.1 µM",> 10 µM
same,IC50,"curve of first compound, second compound 0.316 µM",> 10 µM
same,IC50,"curve of first compound, second compound 1 µM",> 10 µM
same,IC50,"curve of first compound, second compound 3.16 µM",> 10 µM
same,IC50,"curve of first compound, second compound 10 µM",> 10 µM
same,"viability, T/C","second compound 0.0316 µM, first compound 0.0316 µM",101%
same,"viability, T/C","second compound 0.0316 µM, first compound 0.1 µM",95.1%
same,"viability, T/C","second compound 0.0316 µM, first compound 0.316 µM",98%
same,"viability, T/C","second compound 0.0316 µM, first compound 1 µM",98.7%
same,"viability, T/C","second compound 0.0316 µM, first compound 3.16 µM",98.4%
same,"viability, T/C","second compound 0.0316 µM, first compound 10 µM",99.5%
same,"viability, T/C","second compound 0.1 µM, first compound 0.0316 µM",97.3%
same,"viability, T/C","second compound 0.1 µM, first compound 0.1 µM",97.6%
same,"viability, T/C","second compound 0.1 µM, first compound 0.316 µM",95.3%
same,"viability, T/C","second compound 0.1 µM, first compound 1 µM",99%
same,"viability, T/C","second compound 0.1 µM, first compound 3.16 µM",99%
same,"viability, T/C","second compound 0.1 µM, first compound 10 µM",107%
same,"viability, T/C","second compound 0.316 µM, first compound 0.0316 µM",96%
same,"viability, T/C","second compound 0.316 µM, first compound 0.1 µM",97.3%
same,"viability, T/C","second compound 0.316 µM, first compound 0.316 µM",99%
same,"viability, T/C","second compound 0.316 µM, first compound 1 µM",101%
same,"viability, T/C","second compound 0.316 µM, first compound 3.16 µM",101%
same,"viability, T/C","second compound 0.316 µM, first compound 10 µM",102%
same,"viability, T/C","second compound 1 µM, first compound 0.0316 µM",93.4%
same,"viability, T/C","second compound 1 µM, first compound 0.1 µM",102%
same,"viability, T/C","second compound 1 µM, first compound 0.316 µM",102%
same,"viability, T/C","second compound 1 µM, first compound 1 µM",100%
same,"viability, T/C","second compound 1 µM, first compound 3.16 µM",103%
same,"viability, T/C","second compound 1 µM, first compound 10 µM",103%
same,"viability, T/C","second compound 3.16 µM, first compound 0.0316 µM",103%
same,"viability, T/C","second compound 3.16 µM, first compound 0.1 µM",99.8%
same,"viability, T/C","second compound 3.16 µM, first compound 0.316 µM",99.5%
same,"viability, T/C","second compound 3.16 µM, first compound 1 µM",101%
same,"viability, T/C","second compound 3.16 µM, first compound 3.16 µM",102%
same,"viability, T/C","second compound 3.16 µM, first compound 10 µM",104%
same,"viability, T/C","second compound 10 µM, first compound 0.0316 µM",99.9%
same,"viability, T/C","second compound 10 µM, first compound 0.1 µM",104%
same,"viability, T/C","second compound 10 µM, first compound 0.316 µM",106%
same,"viability, T/C","second compound 10 µM, first compound 1 µM",103%
same,"viability, T/C","second compound 10 µM, first compound 3.16 µM",103%
same,"viability, T/C","second compound 10 µM, first compound 10 µM",85.6%
CC1(C)CCC(Nc2ncc(C(F)(F)F)c(-c3c[nH]c4c(P(C)(C)=O)c(C#N)ccc34)n2)CN1 (configuration not stated),"viability, T/C",compound 0.00949 µM,14.5% [middle of 4 runs]
same,"viability, T/C",compound 0.03 µM,8.74% [middle of 4 runs]
same,"viability, T/C",compound 0.0949 µM,9.57% [middle of 4 runs]
same,"viability, T/C",compound 0.3 µM,5.41% [middle of 4 runs]
CCc1c2c(nc3ccc(O)cc13)-c1cc3c(c(=O)n1C2)COC(=O)[C@]3(O)CC,"viability, T/C",compound 0.000949 µM,110% and 80.3% and 104% (2×)
same,"viability, T/C",compound 0.003 µM,15.8% [middle of 4 runs]
same,"viability, T/C",compound 0.00949 µM,1.38% [middle of 4 runs]
same,"viability, T/C",compound 0.03 µM,1.43% [middle of 4 runs]
same,"viability, T/C",compound 0.0949 µM,1.87% [middle of 4 runs]
same,"viability, T/C",compound 0.3 µM,1.15% [middle of 4 runs]
same,IC50,curve of compound,1.97 nM [middle of 4 runs]
